Reference: patent publication US11623002B2, “ALK polypeptides and methods of use thereof” (Elicio Therapeutics, Inc., priority 2016, dated 2023)
Entries after “also recorded” stand apart in the source; their conditions may differ.

Tests used:
[1] = test system: CD4 T-cell; assay: Intracellular cytokine staining (ICS), CD4 T-cell response to individual ALK polypeptides; format: cell-based; details: spleen and lymph node cells of mice immunized with SEQ ID NOs: 1-59 mixed with Freund's adjuvant; re-stimulated with individual ALK polypeptides; FIGS. 2A and 2B
Source text: (§1) To identify the immunodominant ALK polypeptides, mice were immunized with ALK polypeptides having the sequences of SEQ ID NOs: 1-59 listed in Table 1A mixed with Freund's adjuvant. Spleens and lymph nodes were then removed from immunized mice and assayed by intracellular cytokine staining (ICS).

[2] = test system: CD8 T-cell; assay: Intracellular cytokine staining (ICS), CD8 T-cell response to individual ALK polypeptides; format: cell-based; details: spleen and lymph node cells of mice immunized with SEQ ID NOs: 1-59 mixed with Freund's adjuvant; re-stimulated with individual ALK polypeptides; FIGS. 2C and 2D
Source text: as §1

Row | Sequence | CD4 T-cell responses (ICS) [1] | CD8 T-cell response (ICS) [2]
1 | PVYRIMTQCWQHQPE [SEQ ID NO: 53] | strongest CD4 T-cell responses | 
2 | PSPLQVAVRTLPEVC [SEQ ID NO: 10] | strongest CD4 T-cell responses | strongest CD8 T-cell response
3 | LTCPGPGRVAKIGDF [SEQ ID NO: 33] |  | strongest CD8 T-cell response; also recorded: CD8 T-cell (CD8) stimulating sequence
4 | KNCPGPVYRIMTQCW [SEQ ID NO: 52] | strongest CD4 T-cell responses | 
5 | QNIVRCIGVSLQSLP [SEQ ID NO: 17] | strongest CD4 T-cell responses | 
6 | LDFLMEALIISKFNH [SEQ ID NO: 14] | strongest CD4 T-cell responses | strongest CD8 T-cell response
7 | GDLKSFLRETRPRPS [SEQ ID NO: 22] | strongest CD4 T-cell responses | 
